From patent US7291580B2, “6-(1,1-difluoroalkyl)-4-aminopicolinates and their use as herbicides” (Dow AgroSciences LLC, priority 2004, dated 2007)

What was measured:
[1] = test system: Barnyardgrass (Echinochloa crus-galli); experiment: Postemergence herbicidal activity; assay type: in vivo; conditions: visual score after 2 weeks, 0 = no injury, 100 = complete kill
Method: (§1) Seeds of the desired test plant species were planted in Grace-Sierra MetroMix® 306 planting mixture, which typically has a pH of 6.0 to 6.8 and an organic matter content of about 30 percent, in plastic pots with a surface area of 64 square centimeters. […] The plants were grown for 7-21 days in a greenhouse with an approximate 15 hr photoperiod which was maintained at about 23-29° C. during the day and 22-28° C. during the night. Nutrients and water were added on a regular basis and supplemental lighting was provided with overhead metal halide 1000-Watt lamps as necessary. The plants were employed for testing when they reached the first or second true leaf stage.
(§2) A weighed amount, determined by the highest rate to be tested, of each test compound was placed in a 20 mL glass vial and was dissolved in 4 mL of a 97:3 v/v (volume/volume) mixture of acetone and dimethyl sulfoxide (DMSO) to obtain concentrated stock solutions. […] The concentrated stock solutions obtained were diluted with an aqueous mixture containing acetone, water, isopropyl alcohol, DMSO, Atplus 411F crop oil concentrate, and Triton X-155 surfactant in a 48.5:39:10:1.5:1.0:0.02 v/v ratio to obtain spray solutions of known concentration. The solutions containing the highest concentration to be tested were prepared by diluting 2 mL aliquots of the stock solution with 13 mL of the mixture and lower concentrations were prepared by serial dilution of the stock solution. Approximately 1.5 mL aliquots of each solution of known concentration were sprayed evenly onto each of the test plant pots using a DeVilbiss atomizer driven by compressed air pressure of 2 to 4 psi (140 to 280 kiloPascals) to obtain thorough coverage of each plant. Control plants were sprayed in the same manner with the aqueous mixture. In this test an application rate of 1 ppm results in the application of approximately 1 g/Ha.
(§3) The treated plants and control plants were placed in a greenhouse as described above and watered by sub-irrigation to prevent wash-off of the test compounds. After 2 weeks the condition of the test plants as compared with that of the untreated plants was determined visually and scored on a scale of 0 to 100 percent where 0 corresponds to no injury and 100 corresponds to complete kill.

[2] = test system: Cocklebur (Xanthium strumarium); experiment: Postemergence herbicidal activity; assay type: in vivo; conditions: visual score after 2 weeks, 0 = no injury, 100 = complete kill
Method: as §1, §2, §3

[3] = test system: Giant Foxtail (Setaria faberi); experiment: Postemergence herbicidal activity; assay type: in vivo; conditions: visual score after 2 weeks, 0 = no injury, 100 = complete kill
Method: as §1, §2, §3

[4] = test system: Lambsquarter (Chenopodium album); experiment: Postemergence herbicidal activity; assay type: in vivo; conditions: visual score after 2 weeks, 0 = no injury, 100 = complete kill
Method: as §1, §2, §3

[5] = test system: Pigweed (redroot) (Amaranthus retroflexus); conditions: rate 123 (unit not given); visual score after 2 weeks, 0 = no injury, 100 = complete kill
Method: as §1
(§4) A weighed amount, determined by the highest rate to be tested, of each test compound was placed in a 20 mL glass vial and was dissolved in 4 mL of a 97:3 v/v (volume/volume) mixture of acetone and dimethyl sulfoxide (DMSO) to obtain concentrated stock solutions. […]
as §3

[6] = test system: Wheat (var.Merica) (Triticum aestivum); conditions: rate 123 (unit not given); crop selectivity to wheat; visual score after 2 weeks, 0 = no injury, 100 = complete kill
Method: as §1, §4, §3

[7] = test system: Crabgrass (large) (Digitaria sanguinalis); experiment: Preemergence herbicidal activity; assay type: in vivo; conditions: rate 560 ppm; visual score after 3 weeks, 0 = no injury, 100 = complete kill or no germination
Method: (§5) The soil matrix was contained in plastic pots with a surface area of 113 square centimeters. […] The stock solutions obtained were diluted with a 99.9:0.1 mixture of water and Tween® […] surfactant to obtain application solutions of known concentration. […] A 2.5 mL aliquot of each solution of known concentration was sprayed evenly onto the soil surface (113 sq. cm) of each seeded pot using a Cornwall 5.0 mL glass syringe fitted with a TeeJet TN-3 hollow cone nozzle to obtain thorough coverage of the soil in each pot. […] The water was added by top-irrigation.

[8] = test system: Giant Foxtail (Setaria faberi); experiment: Preemergence herbicidal activity; assay type: in vivo; conditions: rate 560 ppm; visual score after 3 weeks, 0 = no injury, 100 = complete kill or no germination
Method: as §5

[9] = test system: Ivyleaf Morningglory (Ipomoea hederacea); experiment: Preemergence herbicidal activity; assay type: in vivo; conditions: rate 560 ppm; visual score after 3 weeks, 0 = no injury, 100 = complete kill or no germination
Method: as §5

[10] = test system: Lambsquarter (Chenopodium album); experiment: Preemergence herbicidal activity; assay type: in vivo; conditions: rate 560 ppm; visual score after 3 weeks, 0 = no injury, 100 = complete kill or no germination
Method: as §5

SMILES: COC(=O)c1nc(C(C)(F)F)cc(N)c1Cl [Compound 1, Methyl 4-amino-3-chloro-6-(1,1-difluroethyl)pyridine-2-carboxylate]
- Post-emergent (% injury) ECHCG ([1]; rate 245 ppm): 75%
- Post-emergent (% injury) XANST ([2]; rate 245 ppm): 100%
- Post-emergent (% injury) SETFA ([3]; rate 245 ppm): 65%
- Post-emergent (% injury) CHEAL ([4]; rate 123 (unit not given)): 100%
- Post-emergent (% injury) CHEAL ([4]; rate 245 ppm): 100%
- Post-emergent (% injury) AMARE [5]: 100%
- Post-emergent (% injury) TRZAS [6]: 0%
- Pre-emergent (% injury) DIGSA [7]: 100%
- Pre-emergent (% injury) SETFA [8]: 100%
- Pre-emergent (% injury) IPOHE [9]: 100%
- Pre-emergent (% injury) CHEAL [10]: 100%

SMILES: CC(F)(F)c1cc(N)c(Cl)c(C(=O)O)n1 [Compound 2, 4-amino-3-chloro-6-(1,1-difluoroethyl)pyridine-2-carboxylic acid]
- Post-emergent (% injury) ECHCG ([1]; rate 250 ppm): 80%
- Post-emergent (% injury) XANST ([2]; rate 250 ppm): 100%
- Post-emergent (% injury) SETFA ([3]; rate 250 ppm): 85%
- Post-emergent (% injury) CHEAL ([4]; rate 250 ppm): 100%
- Pre-emergent (% injury) DIGSA [7]: 98%
- Pre-emergent (% injury) SETFA [8]: 95%
- Pre-emergent (% injury) IPOHE [9]: 100%
- Pre-emergent (% injury) CHEAL [10]: 100%
